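How tested: cells in 96-well plates exposed to compound for 48 hours at five concentrations. Definition used: TGI = concentration required for complete inhibition of growth.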
Key:
Experiment in all cases: NCI-60 cell line screen, 48 h
MDA-MB-231 breast = system: MDA-MB-231 breast
SK-MEL-28 melanoma = system: SK-MEL-28 melanoma
RPMI-8226 leukemia = system: RPMI-8226 leukemia
SF-539 CNS = system: SF-539 CNS
SNB-19 CNS = system: SNB-19 CNS
A498 renal = system: A498 renal
SN12C renal = system: SN12C renal
786-0 renal = system: 786-0 renal
OVCAR-4 ovarian = system: OVCAR-4 ovarian
MCF7 breast = system: MCF7 breast
KM12 colon = system: KM12 colon
OVCAR-8 ovarian = system: OVCAR-8 ovarian
CAKI-1 renal = system: CAKI-1 renal
NCI-H226 lung = system: NCI-H226 lung
NCI-H23 lung = system: NCI-H23 lung
NCI-H460 lung = system: NCI-H460 lung
SK-OV-3 ovarian = system: SK-OV-3 ovarian
IGROV1 ovarian = system: IGROV1 ovarian
NCI/ADR-RES ovarian = system: NCI/ADR-RES ovarian
SR leukemia = system: SR leukemia
SK-MEL-2 melanoma = system: SK-MEL-2 melanoma
SF-295 CNS = system: SF-295 CNS
HT29 colon = system: HT29 colon
EKVX NSCLC = system: EKVX NSCLC
M14 melanoma = system: M14 melanoma
UO-31 renal = system: UO-31 renal
TK-10 renal = system: TK-10 renal
COLO 205 colon = system: COLO 205 colon
UACC-257 melanoma = system: UACC-257 melanoma
OVCAR-5 ovarian = system: OVCAR-5 ovarian
SNB-75 CNS = system: SNB-75 CNS
NCI-H522 lung = system: NCI-H522 lung
T-47D breast = system: T-47D breast
HS 578T breast = system: HS 578T breast
PC-3 prostate = system: PC-3 prostate
HOP-92 NSCLC = system: HOP-92 NSCLC
A549 NSCLC = system: A549 NSCLC
LOX IMVI melanoma = system: LOX IMVI melanoma
DU-145 prostate = system: DU-145 prostate
HOP-62 NSCLC = system: HOP-62 NSCLC
UACC-62 melanoma = system: UACC-62 melanoma
HCT-15 colon = system: HCT-15 colon
BT-549 breast = system: BT-549 breast
ACHN renal = system: ACHN renal
HL-60(TB) leukemia = system: HL-60(TB) leukemia
MOLT-4 leukemia = system: MOLT-4 leukemia
HCC-2998 colon = system: HCC-2998 colon
CCRF-CEM leukemia = system: CCRF-CEM leukemia
SF-268 CNS = system: SF-268 CNS
SW-620 colon = system: SW-620 colon
OVCAR-3 ovarian = system: OVCAR-3 ovarian
HCT-116 colon = system: HCT-116 colon
SK-MEL-5 melanoma = system: SK-MEL-5 melanoma
U251 CNS = system: U251 CNS

Measured: TGI

COc1ccc2c(=O)c(-c3cc4c(cc3OC)OCO4)coc2c1
> 100 µM: MDA-MB-231 breast | SK-MEL-28 melanoma | RPMI-8226 leukemia | SF-539 CNS | SNB-19 CNS | A498 renal | SN12C renal | 786-0 renal | OVCAR-4 ovarian | MCF7 breast | KM12 colon | OVCAR-8 ovarian | CAKI-1 renal | NCI-H226 lung | NCI-H23 lung | NCI-H460 lung | SK-OV-3 ovarian | IGROV1 ovarian | NCI/ADR-RES ovarian | SR leukemia | SK-MEL-2 melanoma | SF-295 CNS | HT29 colon | EKVX NSCLC | M14 melanoma | UO-31 renal | TK-10 renal | COLO 205 colon | UACC-257 melanoma | OVCAR-5 ovarian | SNB-75 CNS | NCI-H522 lung | T-47D breast | HS 578T breast | PC-3 prostate | HOP-92 NSCLC | A549 NSCLC | LOX IMVI melanoma | DU-145 prostate | HOP-62 NSCLC | UACC-62 melanoma | HCT-15 colon | BT-549 breast | ACHN renal | HL-60(TB) leukemia | MOLT-4 leukemia | HCC-2998 colon | CCRF-CEM leukemia | SF-268 CNS | SW-620 colon | OVCAR-3 ovarian | HCT-116 colon | SK-MEL-5 melanoma | U251 CNS

Source: PubChem BioAssay (NCI)
